Assay results published in BigSolDB 2.1.

Structure (SMILES): OC[C@H]1O[C@H](O[C@]2(CCl)O[C@H](CCl)[C@@H](O)[C@@H]2O)[C@H](O)[C@@H](O)[C@H]1Cl
- solubility (mole fraction) (in ethanol, 283.15 K): 0.00843
- solubility (mole fraction) (in ethanol, 288.15 K): 0.00976
- solubility (mole fraction) (in ethanol, 293.15 K): 0.012
- solubility (mole fraction) (in ethanol, 298.15 K): 0.0143
- solubility (mole fraction) (in ethanol, 303.15 K): 0.0158
- solubility (mole fraction) (in ethanol, 308.15 K): 0.0184
- solubility (mole fraction) (in ethanol, 313.15 K): 0.0202
- solubility (mole fraction) (in ethanol, 318.15 K): 0.0228
- solubility (mole fraction) (in ethanol, 323.15 K): 0.0248
- solubility (mole fraction) (in ethanol, 328.15 K): 0.0281
- solubility (mole fraction) (in ethanol, 333.15 K): 0.0322
- solubility (mole fraction) (in isopropanol, 288.15 K): 0.00389
- solubility (mole fraction) (in isopropanol, 293.15 K): 0.0044
- solubility (mole fraction) (in isopropanol, 298.15 K): 0.00533
- solubility (mole fraction) (in isopropanol, 303.15 K): 0.00624
- solubility (mole fraction) (in isopropanol, 308.15 K): 0.00789
- solubility (mole fraction) (in isopropanol, 313.15 K): 0.00854
- solubility (mole fraction) (in isopropanol, 318.15 K): 0.011
- solubility (mole fraction) (in isopropanol, 323.15 K): 0.0128
- solubility (mole fraction) (in isopropanol, 328.15 K): 0.015
- solubility (mole fraction) (in isopropanol, 333.15 K): 0.0171
- solubility (mole fraction) (in methanol, 283.15 K): 0.0307
- solubility (mole fraction) (in methanol, 288.15 K): 0.0315
- solubility (mole fraction) (in methanol, 293.15 K): 0.0328
- solubility (mole fraction) (in methanol, 298.15 K): 0.0343
- solubility (mole fraction) (in methanol, 303.15 K): 0.0362
- solubility (mole fraction) (in methanol, 308.15 K): 0.0383
- solubility (mole fraction) (in methanol, 313.15 K): 0.0415
- solubility (mole fraction) (in methanol, 318.15 K): 0.0449
- solubility (mole fraction) (in methanol, 323.15 K): 0.0485
- solubility (mole fraction) (in methanol, 328.15 K): 0.0524
- solubility (mole fraction) (in methanol, 333.15 K): 0.0596
- solubility (mole fraction) (in water, 283.15 K): 0.0107
- solubility (mole fraction) (in water, 288.15 K): 0.0115
- solubility (mole fraction) (in water, 293.15 K): 0.0123
- solubility (mole fraction) (in water, 298.15 K): 0.0146
- solubility (mole fraction) (in water, 303.15 K): 0.0164
- solubility (mole fraction) (in water, 308.15 K): 0.0182
- solubility (mole fraction) (in water, 313.15 K): 0.0195
- solubility (mole fraction) (in water, 318.15 K): 0.0223
- solubility (mole fraction) (in water, 323.15 K): 0.0259
- solubility (mole fraction) (in water, 328.15 K): 0.0285
- solubility (mole fraction) (in water, 333.15 K): 0.0314
